Laboratory results taken from ChEMBL document CHEMBL1127288, “Derivatives of D-penicillamine as potential antiarthritic agents” (1994).

What was measured:
Format in all cases: functional
Rattus norvegicus [1] = assay: Cartilage space narrowing was measured radiographically after 42 days initial immunization with type II collagen in rats at a dose of 200 mg/kg
Rattus norvegicus [2] = assay: Erosions of tarsal bones measured radiographically after 42 days initial immunization with type II collagen in rats at a dose of 200 mg/kg
Rattus norvegicus [3] = assay: Paw diameter measured with a micrometer caliper after 42 days initial immunization with type II collagen in rats at a dose of 200 mg/kg

Row | Structure (SMILES) | Cartilage space (Rattus norvegicus [1]) | Erosions (Rattus norvegicus [2]) | Mean paw diameter (Rattus norvegicus [3])
1 | C[C@]12C=CC(=O)C=C1CCC1[C@@H]2[C@@H](O)C[C@@]2(C)[C@H]1CC[C@]2(O)C(=O)CO (single isomer, unassigned) [PREDNISOLONE] | 3.27 | 3.5 | 7.92 mm
2 | COc1ccc2c(c1)c(CC(=O)O)c(C)n2C(=O)c1ccc(Cl)cc1 [INDOMETHACIN] | 2.94 | 2.94 | 8 mm
3 | CC(C)(S)[C@@H](N)C(=O)O [PENICILLAMINE] | 2.72 | 2.83 | 8.89 mm
4 | CCCCC1C(=O)N(c2ccccc2)N(c2ccccc2)C1=O [PHENYLBUTAZONE] | 2.86 | 3.33 | 8.42 mm
